This is an account of results in US10099993B2, “Metabotropic glutamate receptor positive allosteric modulators (PAMS) and uses thereof” (Sanford-Burnham Medical Research Institute, priority 2014, dated 2018).

In experiment [1] the target is mGlu3 (Rattus norvegicus (Rat), UniProt P31422). In words: mGlu3 GIRK thallium flux assay.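 On all read-outs here: kinetic fluorescence slope read shortly after thallium plus agonist addition, scaled between vehicle and maximal agonist control.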 To be noted: for EC50: read-out: mGlu3 PAM EC50, test compound, then EC20 glutamate […] later in the presence of thallium; for Emax: read-out: mGlu3 PAM Max.
The target of experiment [2] is mGlu2 (Rattus norvegicus (Rat), UniProt P31421). In words: mGlu2 GIRK thallium flux assay.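 On all read-outs here: Cell-based assay, rate of fluorescence rise right after thallium plus agonist addition read on a kinetic imaging plate reader, normalized to vehicle and maximal agonist control.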 The following applies: for EC50: read-out: mGlu2 PAM EC50, test compound, then EC20 glutamate […] later in the presence of thallium; for Emax: read-out: mGlu2 PAM Max.
[3] abbreviates: PAM mode, mean ± SEM, at least three experiments.

What is called EC50 is the concentration at which the effect is half-maximal.

Sequence of mGlu3 (P31422 23-879): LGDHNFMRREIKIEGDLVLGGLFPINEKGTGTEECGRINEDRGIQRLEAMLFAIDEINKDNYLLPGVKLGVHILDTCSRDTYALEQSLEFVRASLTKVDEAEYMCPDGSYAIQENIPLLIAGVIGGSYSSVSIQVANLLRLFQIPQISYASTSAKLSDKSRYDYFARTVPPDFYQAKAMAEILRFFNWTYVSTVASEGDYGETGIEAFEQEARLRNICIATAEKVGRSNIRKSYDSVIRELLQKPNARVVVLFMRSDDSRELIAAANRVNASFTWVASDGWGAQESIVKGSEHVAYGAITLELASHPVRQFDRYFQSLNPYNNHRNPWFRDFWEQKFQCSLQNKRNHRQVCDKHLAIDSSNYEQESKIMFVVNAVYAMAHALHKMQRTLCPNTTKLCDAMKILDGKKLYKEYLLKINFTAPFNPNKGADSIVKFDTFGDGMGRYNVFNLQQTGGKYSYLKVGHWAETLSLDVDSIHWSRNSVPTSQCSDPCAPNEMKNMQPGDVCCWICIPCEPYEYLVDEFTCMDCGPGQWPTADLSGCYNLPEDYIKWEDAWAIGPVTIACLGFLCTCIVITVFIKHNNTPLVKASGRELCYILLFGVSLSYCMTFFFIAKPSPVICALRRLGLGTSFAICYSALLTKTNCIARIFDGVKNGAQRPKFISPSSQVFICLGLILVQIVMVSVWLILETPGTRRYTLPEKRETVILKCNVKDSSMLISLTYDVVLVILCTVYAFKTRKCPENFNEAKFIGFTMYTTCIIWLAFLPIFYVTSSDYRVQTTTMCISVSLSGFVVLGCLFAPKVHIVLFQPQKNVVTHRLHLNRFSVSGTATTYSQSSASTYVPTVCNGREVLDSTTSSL
Sequence of mGlu2 (P31421 19-872): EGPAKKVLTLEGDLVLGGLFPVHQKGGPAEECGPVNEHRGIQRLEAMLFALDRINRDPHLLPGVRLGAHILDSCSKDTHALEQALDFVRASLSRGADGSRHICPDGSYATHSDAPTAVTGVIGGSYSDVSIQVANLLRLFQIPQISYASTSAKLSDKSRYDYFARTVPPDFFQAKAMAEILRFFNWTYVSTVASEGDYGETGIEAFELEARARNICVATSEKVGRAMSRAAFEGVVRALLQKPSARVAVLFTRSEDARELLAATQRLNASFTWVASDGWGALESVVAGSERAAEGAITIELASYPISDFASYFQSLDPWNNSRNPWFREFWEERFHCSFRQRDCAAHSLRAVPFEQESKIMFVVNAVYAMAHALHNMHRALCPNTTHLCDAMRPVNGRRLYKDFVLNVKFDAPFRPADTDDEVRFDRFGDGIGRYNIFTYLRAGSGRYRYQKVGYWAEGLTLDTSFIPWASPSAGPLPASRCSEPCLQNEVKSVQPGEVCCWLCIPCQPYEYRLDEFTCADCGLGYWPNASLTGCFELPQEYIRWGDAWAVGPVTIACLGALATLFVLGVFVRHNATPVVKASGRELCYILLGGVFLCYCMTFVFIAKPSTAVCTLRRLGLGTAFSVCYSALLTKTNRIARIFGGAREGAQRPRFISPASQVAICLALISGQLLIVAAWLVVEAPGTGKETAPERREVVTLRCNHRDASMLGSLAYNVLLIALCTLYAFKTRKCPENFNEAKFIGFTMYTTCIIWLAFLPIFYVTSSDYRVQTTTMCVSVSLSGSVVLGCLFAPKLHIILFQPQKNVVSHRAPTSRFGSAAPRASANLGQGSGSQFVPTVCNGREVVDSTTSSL

For `COC(=O)c1ccc(OCCCCOc2ccc(C(=O)CC3CCCC3)c(O)c2C)cc1` [Compound 17, Methyl 4-(4-(4-(2-cyclopentylacetyl)-3-hydroxy-2-methylphenoxy)butoxy)benzoate], the EC50 in experiment [1] (PAM mode, mean ± SEM) is more than 30000 nM; in experiment [2] (setting [3]), more than 30000 nM.

`COc1ccc(C(=O)NS(=O)(=O)c2ccccc2)cc1OCCCCOc1ccc(C(=O)CC(C)(C)C)c(O)c1C` [compound 113, 3-(4-(4-(3,3-Dimethylbutanoyl)-3-hydroxy-2-methylphenoxy)butoxy)-4-methoxy-N-(phenylsulfonyl)benzamide]: the EC50 in experiment [1] (PAM mode, mean ± SEM) turned out to be 1080 ± 21 nM; in experiment [2] (setting [3]), 872 ± 4 nM. The Emax in experiment [1] worked out at 109 ± 3.5%; in experiment [2] it was 102 ± 2.9%.

Regarding `Cc1c(OCc2cccc(-c3cccc(C(=O)O)c3)c2)ccc(C(=O)C(C)C)c1O` [compound 131, 3′-((3-Hydroxy-4-isobutyryl-2-methylphenoxy)methyl)-[1,1′-biphenyl]-3-carboxylic acid], the EC50 in experiment [1] (PAM mode, mean ± SEM) came to 1750 ± 891 nM; in experiment [2] (setting [3]) it was 222 ± 82 nM. Besides, the Emax turned out to be 55 ± 24.4% in experiment [1] and 83.2 ± 12.3% in experiment [2].

Turning to `COC(=O)c1ccc(OCCCCOc2ccc(C(=O)CC(C)C)c(C)c2C)cc1` [Compound 14, Methyl 4-(4-(2,3-dimethyl-4-(3-methylbutanoyl)phenoxy)butoxy)benzoate], the EC50 in experiment [1] (PAM mode, mean ± SEM) is more than 30000 nM; in experiment [2] (setting [3]) it was more than 30000 nM.

For `Cc1c(OCc2cccc(COc3ccc(C(=O)O)cc3)c2)ccc(C(=O)CC(C)C)c1C` [compound 123], the EC50 was more than 30000 nM in experiment [1] (PAM mode, mean ± SEM) and more than 30000 nM in experiment [2] (setting [3]).

For the molecule `Cc1c(OCc2ccc(-c3cccc(C(=O)O)c3)cc2)ccc(C(=O)CC(C)(C)C)c1O` [compound 142, 4′-((4-(3,3-Dimethylbutanoyl)-3-hydroxy-2-methylphenoxy)methyl)-[1,1′-biphenyl]-3-carboxylic acid], the EC50 in experiment [1] (PAM mode, mean ± SEM) was determined as 2200 ± 753 nM; in experiment [2] (setting [3]), 3180 ± 626 nM. Further, the Emax was 88.7 ± 9.5% in experiment [1] and 97.1 ± 8.2% in experiment [2].

Take `Cc1c(OCc2cccc(-c3cc(C(=O)O)ccc3F)c2)ccc(C(=O)CC(C)(C)C)c1O` [compound 139, 3′-((4-(3,3-Dimethylbutanoyl)-3-hydroxy-2-methylphenoxy)methyl)-6-fluoro-[1,1′-biphenyl]-3-carboxylic acid]: the half-maximal effective concentration (EC50) was determined as 1100 ± 330 nM in experiment [1] (PAM mode, mean ± SEM) and 436 ± 84 nM in experiment [2] (setting [3]). In addition, the Emax amounted to 85.6 ± 5.5% in experiment [1] and 88.2 ± 5.1% in experiment [2].

On to `Cc1c(OCc2cccc(-c3ccc(Cl)c(C(=O)O)c3)c2)ccc(C(=O)CC2CCCC2)c1C` [compound 171], for which the “mGlu3 PAM Max” value in experiment [1] (PAM mode, % Glutamate Max, mean ± SEM) is listed as 10.7 ± 1.0%. Further, the concentration giving a half-maximal response (EC50) in experiment [1] (PAM mode, mean ± SEM) is more than 30000 nM; in experiment [2] (setting [3]), more than 30000 nM. In addition, the “mGlu2 PAM Max” value in experiment [2] (PAM mode, % Glutamate Max, mean ± SEM, at least three experiments) was 12.3 ± 1.2%.

As to `Cc1c(OCCCCOc2ccccn2)ccc(C(=O)CC2CCCC2)c1C` [Compound 194], the EC50 was more than 30000 nM in experiment [1] (PAM mode, mean ± SEM) and more than 10000 nM in experiment [2] (setting [3]).

Turning to `CC(=O)c1ccc(OCc2cccc(-c3cccc(C(=O)O)c3)c2)c(C)c1O` [compound 128, 3′-((4-Acetyl-3-hydroxy-2-methylphenoxy)methyl)-[1,1′-biphenyl]-3-carboxylic acid], the EC50 worked out at 1290 ± 781 nM in experiment [1] (PAM mode, mean ± SEM) and 35 ± 13 nM in experiment [2] (setting [3]). Moreover, the Emax came to 67.8 ± 8.7% in experiment [1] and 57.9 ± 6.6% in experiment [2].

With `COc1ccc(C(=O)NC(C)(C)C)cc1OCCCCOc1ccc(C(=O)CC(C)(C)C)c(O)c1C` [compound 108, N-(tert-Butyl)-3-(4-(4-(3,3-dimethylbutanoyl)-3-hydroxy-2-methylphenoxy)butoxy)-4-methoxybenzamide], the 50% effective concentration (EC50) in experiment [1] (PAM mode, mean ± SEM) is more than 30000 nM; in experiment [2] (setting [3]), more than 10000 nM. In addition, the figures for the Emax in experiment [1] and in experiment [2] were 33.4 ± 5.3% and 38.6 ± 1.1%, respectively.

Take `Cc1c(OCc2cccc(-c3cccc(CC(=O)O)c3)c2)ccc(C(=O)CC(C)(C)C)c1O` [compound 145, 2-(3′-((4-(3,3-dimethylbutanoyl)-3-hydroxy-2-methylphenoxy)methyl)-[1,1′-biphenyl]-3-yl)acetic acid]: the EC50 turned out to be 3940 ± 1320 nM in experiment [1] (PAM mode, mean ± SEM) and 1360 ± 259 nM in experiment [2] (setting [3]). For the same molecule, the Emax in experiment [1] was determined as 79.1 ± 15%; in experiment [2], 93.4 ± 11.4%.

With `CCCC(=O)c1ccc(OCc2cccc(-c3cccc(C(=O)O)c3)c2)c(C)c1O` [compound 130, 3′-((4-Butyryl-3-hydroxy-2-methylphenoxy)methyl)-[1,1′-biphenyl]-3-carboxylic acid], the EC50 worked out at 1680 ± 753 nM in experiment [1] (PAM mode, mean ± SEM) and 142 ± 29 nM in experiment [2] (setting [3]). Also, the Emax stood at 81 ± 14.8% in experiment [1] and 92.9 ± 10.7% in experiment [2].

Take `Cc1c(OCc2cccc(-c3ccc(C(=O)O)cc3Cl)c2)ccc(C(=O)CC(C)(C)C)c1O` [compound 147, 2-Chloro-3′-((4-(3,3-dimethylbutanoyl)-3-hydroxy-2-methylphenoxy)methyl)-[1,1′-biphenyl]-4-carboxylic acid]: the concentration giving a half-maximal response (EC50) in experiment [1] (PAM mode, mean ± SEM) is 2280 ± 827 nM; in experiment [2] (setting [3]), 460 ± 158 nM. The figures for the Emax in experiment [1] and in experiment [2] were 81.4 ± 9.7% and 98.6 ± 5.7%, respectively.

In the case of `Cc1c(OCc2cccc(-c3ccc(Cl)c(C(=O)O)c3)c2)ccc(C(=O)CC(C)(C)C)c1O` [compound 133, 4-Chloro-3′-((4-(3,3-dimethylbutanoyl)-3-hydroxy-2-methylphenoxy)methyl)-[1,1′-biphenyl]-3-carboxylic acid], the EC50 was 1710 ± 888 nM in experiment [1] (PAM mode, mean ± SEM) and 433 ± 99 nM in experiment [2] (setting [3]). Also, the results for the Emax in experiment [1] and in experiment [2] were 70.9 ± 3.6% and 90.2 ± 4.1%, respectively.

As for `Cc1c(OCc2cccc(-c3ccccc3C(=O)O)c2)ccc(C(=O)CC(C)(C)C)c1O` [compound 138, 3′-((4-(3,3-Dimethylbutanoyl)-3-hydroxy-2-methylphenoxy)methyl)-[1,1′-biphenyl]-2-carboxylic acid], the EC50 in experiment [1] (PAM mode, mean ± SEM) is more than 10000 nM; in experiment [2] (setting [3]), 643 ± 137 nM. Moreover, the results for the Emax in experiment [1] and in experiment [2] were 23.5 ± 4.6% and 42.1 ± 7.1%, respectively.

Regarding `Cc1c(OCc2ccc(-c3cccc(C(=O)O)c3)o2)ccc(C(=O)CC(C)(C)C)c1O` [compound 158, 3-(5-((4-(3,3-Dimethylbutanoyl)-3-hydroxy-2-methylphenoxy)methyl)furan-2-yl)benzoic acid], the EC50 in experiment [1] (PAM mode, mean ± SEM) is 421 ± 5 nM; in experiment [2] (setting [3]), 328 nM. Moreover, the Emax in experiment [1] is 110 ± 3.9%; in experiment [2], 106 ± 3.8%.

`Cc1c(OCCCCOc2ccc(CCC(=O)O)c(O)c2)ccc(C(=O)CC(C)C)c1C` [compound 111]: the EC50 is more than 30000 nM in experiment [1] (PAM mode, mean ± SEM) and more than 10000 nM in experiment [2] (setting [3]).

For `COc1ccc(C(=O)N2CCOCC2)cc1OCCCCOc1ccc(C(=O)CC(C)(C)C)c(O)c1C` [compound 101, 1-(2-Hydroxy-4-(4-(2-methoxy-5-(morpholine-4-carbonyl)phenoxy)butoxy)-3-methylphenyl)-3,3-dimethylbutan-1-one], the EC50 came out at 741 ± 6 nM in experiment [1] (PAM mode, mean ± SEM) and 875 ± 3 nM in experiment [2] (setting [3]). Also, the figures for the Emax in experiment [1] and in experiment [2] were 132 ± 5% and 113 ± 1.2%, respectively.

Consider `Cc1c(OCCCCOc2ccc3c(c2)B(O)OC3)ccc(C(=O)CC(C)(C)C)c1O` [compound 94, 1-(2-Hydroxy-4-(4-((1-hydroxy-1,3-dihydrobenzo [c][1,2]oxaborol-6-yl)oxy)butoxy)-3-methylphenyl)-3,3-dimethylbutan-1-one], for which the Emax in experiment [1] turned out to be 94 ± 3.8%; in experiment [2] it was 83.9 ± 3.4%.

Consider `Cc1c(OCc2cccc(-c3cncc(C(=O)O)c3)c2)ccc(C(=O)CC(C)(C)C)c1O` [Compound 179, 5-(3-((4-(3,3-Dimethylbutanoyl)-3-hydroxy-2-methylphenoxy)methyl)phenyl)nicotinic acid], for which the EC50 was 1010 ± 20 nM in experiment [1] (PAM mode, mean ± SEM) and 848 ± 9 nM in experiment [2] (setting [3]). Also, the Emax in experiment [1] was 102 ± 3.5%; in experiment [2] it was 100 ± 2.9%.

Regarding `COC(=O)CCc1cc(OCCCCOc2ccc(C(=O)CC(C)C)c(O)c2C)ccc1O` [compound 85], the EC50 in experiment [1] (PAM mode, mean ± SEM) was more than 30000 nM; in experiment [2] (setting [3]) it was more than 10000 nM.

As to `CCCc1c(OCCCCOc2ccc(C(=O)O)cc2OC)ccc(C(C)=O)c1O` [Compound 190, 4-(4-(4-Acetyl-3-hydroxy-2-propylphenoxy)butoxy)-3-methoxybenzoic acid], the Emax in experiment [1] came to 12.1 ± 12.8%; in experiment [2], 64.9 ± 5.1%.

For the molecule `COc1ccc(B(O)O)cc1OCCCCOc1ccc(C(=O)CC(C)(C)C)c(O)c1C` [compound 95, (3-(4-(4-(3,3-Dimethylbutanoyl)-3-hydroxy-2-methylphenoxy)butoxy)-4-methoxyphenyl)boronic acid], the EC50 is more than 30000 nM in experiment [1] (PAM mode, mean ± SEM) and 3010 ± 988 nM in experiment [2] (setting [3]). The Emax in experiment [1] turned out to be 26.2 ± 11.7%; in experiment [2] it was 27.5 ± 2.7%.

In the case of `CCN(CC)C(=O)c1ccc(OC)c(OCCCCOc2ccc(C(=O)CC(C)(C)C)c(O)c2C)c1` [compound 103, 3-(4-(4-(3,3-Dimethylbutanoyl)-3-hydroxy-2-methylphenoxy)butoxy)-N,N-diethyl-4-methoxybenzamide], the EC50 in experiment [1] (PAM mode, mean ± SEM) amounted to 497 ± 6 nM; in experiment [2] (setting [3]), 608 ± 10 nM. The Emax in experiment [1] turned out to be 111 ± 3.4%; in experiment [2], 96.4 ± 2.1%.

`COC(=O)c1ccc(OCc2cccc(COc3ccc(C(=O)CC4CCCC4)c(C)c3C)c2)cc1` [compound 155]: the EC50 in experiment [1] (PAM mode, mean ± SEM) was more than 30000 nM; in experiment [2] (setting [3]), more than 30000 nM.

On to `COc1ccc(C#N)cc1OCCCCOc1ccc(C(=O)CC(C)(C)C)c(O)c1C` [compound 91, 3-(4-(4-(3,3-Dimethylbutanoyl)-3-hydroxy-2-methylphenoxy)butoxy)-4-methoxybenzonitrile], for which the EC50 in experiment [1] (PAM mode, mean ± SEM) is more than 30000 nM; in experiment [2] (setting [3]), more than 10000 nM. The Emax amounted to 33.7 ± 7.4% in experiment [1] and 48.2 ± 7.4% in experiment [2].

Consider `Cc1c(OCc2cccc(-c3cccc(C(=O)O)c3)c2)ccc(C(=O)CC(C)C)c1O` [compound 137, 3′-((3-Hydroxy-2-methyl-4-(3-methylbutanoyl)phenoxy)methyl)-[1,1′-biphenyl]-3-carboxylic acid], for which the EC50 in experiment [1] (PAM mode, mean ± SEM) was determined as 642 ± 151 nM; in experiment [2] (setting [3]), 181 ± 28 nM. The Emax in experiment [1] is 76.8 ± 8%; in experiment [2] it was 85.8 ± 3.7%.
